Measurements published in publication PMC6572294, “Repurposing of FDA-Approved NSAIDs for DPP-4 Inhibition as an Alternative for Diabetes Mellitus Treatment: Computational and in Vitro Study” (Pharmaceutics, 2019).

Target: T1, human dipeptidyl peptidase-4 (DPP-4) (Homo sapiens, UniProt P27487)
T1 construct: gene DPP4
Assay: fluorogenic Gly-Pro cleavage assay, human DPP-4 inhibitor screening kit (Sigma-Aldrich)
Type: biochemical

T1 sequence (P27487 39-766): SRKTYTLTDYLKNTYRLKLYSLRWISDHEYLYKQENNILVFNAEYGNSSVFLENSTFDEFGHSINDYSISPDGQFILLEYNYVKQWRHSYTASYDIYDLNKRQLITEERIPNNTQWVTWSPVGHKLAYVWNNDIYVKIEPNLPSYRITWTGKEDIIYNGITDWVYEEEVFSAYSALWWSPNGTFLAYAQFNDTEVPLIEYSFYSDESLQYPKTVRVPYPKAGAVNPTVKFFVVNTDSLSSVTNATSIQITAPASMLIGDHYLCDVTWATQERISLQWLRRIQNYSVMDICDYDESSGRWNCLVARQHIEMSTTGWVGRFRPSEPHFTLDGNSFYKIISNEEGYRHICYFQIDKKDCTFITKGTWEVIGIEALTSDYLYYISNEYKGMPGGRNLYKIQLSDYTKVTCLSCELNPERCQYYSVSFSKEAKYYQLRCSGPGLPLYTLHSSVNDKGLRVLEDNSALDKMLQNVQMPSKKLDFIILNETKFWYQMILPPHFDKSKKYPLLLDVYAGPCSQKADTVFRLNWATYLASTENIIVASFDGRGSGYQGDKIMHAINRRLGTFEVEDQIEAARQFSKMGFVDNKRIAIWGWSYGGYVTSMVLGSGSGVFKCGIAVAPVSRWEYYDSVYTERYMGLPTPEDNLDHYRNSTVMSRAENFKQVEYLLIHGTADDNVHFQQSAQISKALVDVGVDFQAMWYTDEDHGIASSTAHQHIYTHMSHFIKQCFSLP

CN1C(C(=O)Nc2ccccn2)=C(O)c2ccccc2S1(=O)=O [piroxicam]
IC50: 9.9 µM
